Each block holds one molecule with its values, some of them ahead of it.
Assays:
[1] = tested on: hESC and hiPSC derived photoreceptors; assay: Calcium imaging (Fura-2) of cGMP response; assay type: cell-based, human; conditions: for effect on cGMP-mediated increase in Ca2+ influx: cobalt chloride and magnesium chloride together in the perfusate with cGMP
From the text: In order to determine whether developing photoreceptors contained the machinery necessary for transduction, the inventors plated differentiating EBs onto poly-L-ornithine and laminin-coated 6 well plates for 15 days prior to optical recording using calcium imaging. Membrane disks in the outer segment of native photoreceptors contain a photopigment (for example the rod-specific pigment rhodopsin consists of opsin+retinal), and the cell membrane in outer segments contains cyclic guanosine monophosphate (cGMP)-gated cationic (sodium and calcium) channels. In the dark, cGMP levels are high and the photoreceptors are maintained in a depolarised state via influx of Na^+ and Ca^2+ through these cGMP-gated channels which are in an open state. Exposure to light causes the retinal part of the photopigment to isomerise to trans-retinal, leading to activation of multiple G-proteins and phosphodiesterase 6 which in turns degrades cGMP, resulting in closure of the channels and membrane hyperpolarisation. To test if the hESC and hiPSC derived photoreceptors respond in a similar manner, on day 30, 45 and 60 of differentiation, cells were exposed to flashes of red, green, blue or white light, or to membrane-permeable 8-br-cGMP. As 8-br-cGMP opens the cationic (Na^+ and Ca^2+) channel associated with phototransduction, it triggers a Ca^2+ influx in photoreceptors known as the inward dark current. Loading cells with the fluorescent Ca^2+ indicator Fura-2 therefore enables the visualisation of changes in intracellular calcium associated with opening or closing of the cGMP-gated channel, with a decrease in fluorescence representing an increase in calcium influx.
EBs were dark adapted for 24 hours prior to recording then loaded with Fura-2 AM (10 μM, Molecular probes/Invitrogen) for 45 min at 37° C. (95% O2/5% CO2) followed by perfusion (1 ml/minute) with oxygenated artificial Cerebrospinal Fluid (aCSF; 118 mM NaCl, 25 mM NaHCO3, 1 mM NaH2PO4, 3 mM KCl, 1 mM MgCl2, 2 mM CaCl2, 10 mM glucose) for one hour. Cells were exposed to 8-br-cGMP (cGMP, 1 mM, Sigma) in aCSF. Control recordings were performed with aCSF alone or with 8-br-cGMP in CaCl2-free aCSF supplemented with calcium channel blocker Cobalt (II) chloride (CoCl2, 4 mM, AnalaR) and 10 mM HEPES. Fluorescence was monitored using an inverted Olympus IX71 microscope and images (excitation 380 nm, 800 ms exposure) acquired using a Quantem 512SC camera (Photometrics) and MetaMorph Software (Molecular Devices). For each stimulation 20 seconds baseline activity was recorded. Fluorescence change was analysed using the formula % Δl/lo=(l1−lo)×100/lo, where lo was the average cellular fluorescence during baseline activity and l1 following stimulation. Significance was determined using a student's t-test (P<0.01).

differentiating hESCs = assay: Optic vesicle and optic cup formation from EBs differentiated in 3D with IGF-1; assay type: cell-based, human
Protocol: hESC (line H9, WiCell) and hiPSC lines Clone 4^25 and NHDF^26 were expanded and differentiated as previously described.^14 For IGF-1 treatment, cultures were differentiated in VNIM media^14 supplemented with recombinant human IGF-1 (5 ng/ml, Sigma) until day 37, then in basal Knockout serum-free media^14 with 10 ng/ml IGF-1 until day 90 (FIG. 1A). Control cultures were differentiated in parallel in the absence of IGF-1. Time-lapse capture of culture morphology was achieved using a BioStation CT (Nikon).

[2] = tested on: human pluripotent stem cells; assay: Modified differentiation media, mTeSR1 feeder-free adapted cells: optic cup formation; assay type: cell-based; conditions: 2 and 3 fold increase in IGF-1 concentration, FIG. 15
Protocol: Human pluripotent stem cells were grown under feeder free conditions the effect of freeder free conditions on their differentiation potential to synthetic retina investigated.
mTeSR1 media (Stem Cell Technologies) is a highly specialised serum-free and complete media designed for feeder-free culture. Cells to this feeder-free technique and subjected to differentiation studies using the IGF-1 factor as discussed above.

IGF-IR = target: T1, IGF-IR (Homo sapiens, UniProt P08069); assay: IGF-1 receptor signalling interference: optic vesicle/optic cup formation and survival of EBs; assay type: cell-based; conditions: for optic vesicle production from differentiating EBs: 7 μM
T1 construct: endogenous in cells; host or cells: hESC (line H9, WiCell)-derived embryoid bodies
Protocol: To confirm the contribution of the IGF-1 signalling pathway in this process, the inventors differentiated cells in the presence of a pharmacological inhibitor of the IGF-IR (pi(IR)) or a neutralising antibody directed against the IGF-II receptor, IGF-IIR ((n)IIR), in the presence (+) or absence (−) of IGF-1 supplementation (FIG. 5I, J).
hESCs were expanded and differentiated as described. For interference of IGF-1 receptor signalling an IGF-IR-specific pharmacological inhibitor ([7 μM], AG1024, Stratech) was added to differentiation media for the entire differentiation period. To block/neutralise IGF-II receptor signalling, media was supplemented with goat IgG anti-human IGF-IIR antibody ([0.25 μg/ml], AF2447, R&D) throughout differentiation.

T1 sequence (P08069 31-1367): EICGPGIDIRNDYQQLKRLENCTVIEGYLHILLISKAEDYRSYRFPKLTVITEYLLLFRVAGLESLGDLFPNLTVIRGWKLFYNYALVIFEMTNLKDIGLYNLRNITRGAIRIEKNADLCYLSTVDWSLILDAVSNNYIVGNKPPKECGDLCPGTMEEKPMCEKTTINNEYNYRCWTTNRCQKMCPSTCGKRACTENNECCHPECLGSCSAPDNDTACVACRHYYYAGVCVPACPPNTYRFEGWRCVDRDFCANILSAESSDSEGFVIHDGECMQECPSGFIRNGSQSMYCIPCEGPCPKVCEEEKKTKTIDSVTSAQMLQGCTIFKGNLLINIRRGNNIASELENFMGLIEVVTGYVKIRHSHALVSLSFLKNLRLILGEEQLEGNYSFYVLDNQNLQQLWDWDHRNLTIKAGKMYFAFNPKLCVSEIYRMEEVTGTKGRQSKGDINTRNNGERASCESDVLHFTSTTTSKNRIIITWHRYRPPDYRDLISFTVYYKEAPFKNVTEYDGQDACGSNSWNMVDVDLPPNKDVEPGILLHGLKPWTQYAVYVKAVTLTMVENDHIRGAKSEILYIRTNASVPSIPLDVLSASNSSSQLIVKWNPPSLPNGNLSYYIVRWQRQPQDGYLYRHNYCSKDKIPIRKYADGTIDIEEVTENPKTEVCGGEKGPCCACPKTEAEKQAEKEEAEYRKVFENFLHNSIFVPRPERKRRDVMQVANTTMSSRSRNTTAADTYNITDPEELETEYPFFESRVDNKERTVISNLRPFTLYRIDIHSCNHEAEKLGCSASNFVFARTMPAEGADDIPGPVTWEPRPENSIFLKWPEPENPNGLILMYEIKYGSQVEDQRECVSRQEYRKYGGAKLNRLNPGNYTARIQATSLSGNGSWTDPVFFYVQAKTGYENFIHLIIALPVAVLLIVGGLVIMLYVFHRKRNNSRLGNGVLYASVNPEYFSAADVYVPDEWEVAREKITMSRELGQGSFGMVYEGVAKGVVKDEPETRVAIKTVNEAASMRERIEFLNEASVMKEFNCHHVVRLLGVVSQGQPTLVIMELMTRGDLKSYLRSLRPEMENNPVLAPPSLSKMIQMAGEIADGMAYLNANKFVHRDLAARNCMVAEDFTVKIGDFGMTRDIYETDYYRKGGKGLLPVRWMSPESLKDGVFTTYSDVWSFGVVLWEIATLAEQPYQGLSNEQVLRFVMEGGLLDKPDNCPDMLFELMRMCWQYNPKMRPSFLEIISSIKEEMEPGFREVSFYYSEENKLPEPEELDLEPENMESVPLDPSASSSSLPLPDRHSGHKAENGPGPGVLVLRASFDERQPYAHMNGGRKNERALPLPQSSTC

Molecule: [Cl-].[Cl-].[Mg+2] [magnesium chloride]
effect on cGMP-mediated increase in Ca2+ influx [1]: abolished

cGMP respondent cultures ([1]; by day 90, 8-br-cGMP stimulation): 45.3% | cGMP respondent cultures ([1]; day 45 of differentiation, 8-br-cGMP stimulation): 24.1%
Molecule: IGF-1: recombinant human IGF-1 (Sigma), single-chain 70-amino-acid protein, SEQ ID NO:1
frequency of optic vesicle formation (differentiating hESCs; IGF-1 in differentiation media vs control, FIG. 5I): significantly increased | optic vesicle formation relative to control levels (differentiating hESCs; by day 15): double | increase in optic vesicle and optic cup formation vs control (differentiating hESCs; by day 60): 4 fold | EBs with optic cup formation (differentiating hESCs; day 60, FIG. 5J, control 3.9%): 17.4% | formation of optic cups on increasing concentration [2]: did not cause any significant changes

Fura-2 fluorescence change (Ca2+ influx) ([1]; IGF-1 treated cultures, 1 mM in aCSF): decreased fluorescence
Molecule: Nc1nc2c(nc(Br)n2[C@@H]2O[C@@H]3COP(=O)(O)O[C@H]3[C@H]2O)c(=O)[nH]1 [8-br-cGMP]

Molecule: CC(C)(C)c1cc(C=C(C#N)C#N)cc(Br)c1O [(pi)IR]
viability of cultures (IGF-IR; after day 45, with and without exogenous IGF-1): did not remain viable | optic cups (IGF-IR; day 45): undetectable | optic vesicle production from differentiating EBs (IGF-IR; day 45, absence of IGF-1 ((pi)IR-), p=0.021): significantly reduced | optic vesicle production from differentiating EBs (IGF-IR; day 45, presence of IGF-1 ((pi)IR+), p=0.023): significantly reduced | survival of EBs (IGF-IR; days of differentiation, with and without IGF-1): ≤ 50 days

Molecule: [Cl-].[Cl-].[Co+2] [cobalt chloride, Cobalt (II) chloride]
effect on cGMP-mediated increase in Ca2+ influx [1]: abolished
